# Test results as given in US20200064357A1, “METHODS FOR DETERMINING AND MONITORING GASTROINTESTINAL INFLAMMATION” (Protagonist Therapeutics, Inc., priority 2016, published 2020).
# How the values were obtained:
# [1] = system: Sprague-Dawley rats; assay: Serum LCN2, TNBS rat colitis model, ELISA (Example E2); assay type: in vivo; conditions: per ml of serum, vs vehicle
# Description: The animals were grouped into sham, vehicle, and Peptide 993 treatment at 31 mg/kg/day. Feces were collected from the distal colon of rats and were immediately frozen at the time of necropsy. The feces samples were weighed and homogenized in extraction buffer (PBS pH 7.4 containing Pierce Protease Inhibitors, 3× volume:weight). The samples were incubated on ice for 90 minutes, with intermittent vortexing for complete homogenization. After centrifugation at 3000 g at 4 C, the homogenates were transferred to fresh tubes and subjected to another centrifugation at 14000 g at 4 C. The cleared supernatants were saved in multiple aliquots and stored at −80 C until analysis.
# The serum samples were immediately frozen and thawed only once before use in the ELISA. For LCN2, the samples were diluted at different ratios with assay dilution buffer to capture the large variation in concentration amongst the different groups. The dilution ratios used were 1:10 (for sham), 1:1000, 1:2000 and 1:10000 (vehicle and Peptide 993). Fecal Lipocalin2(LCN2)/NGAL analysis:
# Serum samples were analyzed for LCN2 concentration using the above ELISA protocol. Serum samples were used at dilutions ranging from 1:[…] to ensure that the measurements were within the range and sensitivity of the kit. […] Statistical analysis was performed using 1-Way-ANOVA with Dunnetts's multiple comparison.
# [2] = system: Sprague-Dawley rats; assay: Biomarker gene expression in distal colon, TNBS rat colitis model, quantitative real time PCR (Example E3); assay type: in vivo; conditions: 31 mg/kg/day, normalized to HPRT1, vs vehicle group
# Description: Animals from the sham group (without TNBS exposure), the vehicle group (exposed to TNBS and treated with vehicle only) and the group treated with Peptide 993 (exposed to TNBS and treated with Peptide 993 at 31 mg/kg/day) were subjected for gene expression and miroRNA analysis
# For extraction of total RNA from the distal colons, tissue samples stored at −20° C. in the buffer RNAlater, were thawed and homogenized in RLTplus Buffer (Qiagen) at 20× volume:wt, then subsequently purified using the RNeasy Plus Mini Kit (Qiagen). The concentration of the total RNA was measured and the quality of the RNAs was verified on a gel. The total RNA was used in QuantiTect Reverse Transcription Kit (Qiagen) to obtain cDNA templates for the quantative real time PCR. The expression of the genes LCN2 (Lipocalin 2), S100A8 (a subunit of calprotectin) and CLDN8 (Claudin 8 of the claudin family of tight junction proteins) were measured using Taqman and TaqMan Fast Advanced Master Mix (Applied Biosystems). The threshold cycle number (Ct) values, that are indicative of abundance of template, were normalized using the endogenous control gene HPRT1. The Relative expression of each gene was calculated using the normalized Ct values. Statistical analysis of relative expression was performed using One-way ANOVA method (with Dunnett's multiple comparisons) to compare the variations Vs Group 2.
# [3] = system: Sprague-Dawley rats; assay: Disease pathology in TNBS-induced rat colitis: colon weight/length, colonic score, histology (Example E4); assay type: in vivo
# Description: In the first model, acute colitis was induced in Sprague-Dawley rats by a single intra-rectal instillation of TNBS followed by efficacy analysis at day seven. The animals were grouped into sham+vehicle (PO TID), TNBS+vehicle (PO TID), anti-IL23p19 antibody (4 mg/kg/day IP, Day −1 and Day 3), and Peptide 993 treatment at 9, 28, or 61 mg/kg/day (PO TID+in drinking water). Sham indicates animals not treated with TNBS.
# Following treatment, weight and length were determined from entire colon; colonic score was evaluated as sum of adhesion (0-2), stricture (0-3), ulcer (0-5), and colon wall thickness (0-2); histology was evaluated by a pathologist as sum of mucosal/submucosal inflammation (0-5), transmural inflammation (0-5), erosion (0-5), and gland loss (0-5). Values shown as mean±SD (FIGS. 9A-9C). Statistical significance was assessed by One-way ANOVA with post-hoc Dunnett's vs. Vehicle control: **p≤0.01; ***p≤0.001; ****p≤0.0001; ns, not significant.
# [4] = system: Sprague-Dawley rats; assay: IL-23-directed cytokines in distal colon of 5% DSS-induced acute colitis rats, qRT-PCR and ELISA (Example E4); assay type: in vivo, rat
# Description: In the second model, acute colitis was induced in Sprague-Dawley rats by ad libitum access to 5% DSS dissolved in drinking water every day until analysis at day five. The animals were grouped into sham+vehicle (PO TID), DSS+vehicle (PO TID), and DSS+Peptide 993 treatment at 61 mg/kg/day (PO TID+in drinking water).
# Expression of genes encoding IL-17A, IL-17F, and IL-22 was quantified by quantitative reverse transcription polymerase chain reaction (qRT-PCR), and production of IL-22 protein was quantified by ELISA. Relative expression was normalized to that of HPRT1; and values were determined as geometric mean±95% confidence interval. Protein concentration is shown as mean±SD. Statistical significance was assessed by One-way ANOVA with post-hoc Dunnett's vs. Vehicle control: *p≤0.05; **p≤0.01; ***p≤0.001; ns, not significant.
# [5] = system: Sprague-Dawley rats; assay: CLDN8 gene expression and colonic score in TNBS-induced rat colitis (Example E5); assay type: in vivo
# Description: The claudin family of proteins are components of the tight junction complex. Through expression analysis and colonic scoring, claudins were analyzed as biomarkers for IBD disease severity. […] CLDN8 gene expression was analyzed in a TNBS-induced rat model of […] following the protocols described in Example E1.
# [6] = TNBS rats, day seven, 9, 28 or 61 mg/kg/day PO TID + in drinking water, vs vehicle
# [7] = acute TNBS-induced rat colitis model, oral treatment
# [8] = DSS rats, 61 mg/kg/day oral, distal colon, normalized to HPRT1
structure (smiles),measurement,setting,value
"CC(=O)NC(CCCNC(=N)N)C(=O)NC1CCSCC(C(=O)NC(Cc2ccc(OCCN)cc2)C(=O)NC(Cc2ccc3ccccc3c2)C(=O)NC2(C(=O)NC(CCC(=O)O)C(=O)NC(CC(N)=O)C(=O)NC(CC(N)=O)C(N)=O)CCOCC2)NC(=O)C(CCC(N)=O)NC(=O)C(Cc2c[nH]c3ccccc23)NC(=O)C(C(C)O)NC(=O)C(CCC(N)=O)NC1=O (stereo not shown) [Peptide 993, Ac-[(D)-Arg]-cyclo[[Abu]-QTWQC]-[Phe[4-(2-aminoethoxy)]]-[2-Nal]-[4-amino-4-carboxy-tetrahydropyran]-ENN-NH2]",serum LCN2 concentration,[1],statistically significant decrease
same,"S100A8 expression, distal colon",[2],"not statistically significant, however there was a marked reduction in the average expression of the group"
same,"relative expression of CLDN8, distal colon",[2],increase
same,"relative expression of LCN2, distal colon",[2],significant reduction
same,colon weight-to-length ratio,[3]; [6],significant and dose-dependent reduction
same,histopathological changes in the colon,[3]; [6],normalization
same,macroscopic changes in the colon (colonic score),[3]; [6],normalization
same,activity compared with neutralizing anti-IL-23p19 monoclonal antibody (4 mg/kg/day IP),[3]; [7],comparable
same,disease parameters,[3]; [7],significant and dose-dependent attenuation
same,abundance of IL-22 protein,"[4]; DSS rats, 61 mg/kg/day oral, distal colon, ELISA",significant decreases
same,relative expression of gene encoding IL-17A,[4]; [8],significant decreases
same,relative expression of gene encoding IL-17F,[4]; [8],significant decreases
same,relative expression of gene encoding IL-22,[4]; [8],significant decreases
same,mRNA and/or protein levels of IL-23-directed cytokines in the distal colons,"[4]; DSS-treated rats, 61 mg/kg/day PO TID + in drinking water, day five, vs vehicle",significant reduction
same,"levels of CLDN8 expression, distal colon",[5]; vs vehicle control-treated,restored levels of CLDN8 expression above vehicle control-treated subjects
same,colonic score (0-12),[5]; vs vehicle treated animals,reduced
